The source of these data is ChEMBL document CHEMBL3243984, “Methotrexate analogues. 11. Unambiguous chemical synthesis and in vitro biological evaluation of alpha- and gamma-monoesters as potential prodrugs” (J Med Chem, 1978).

Bounds are passed on as bounds.

Data set [1] has as its system CCRF-CEM. Kind of data set: Growth inhibition of human CCRF-CEM cells. The format is functional.
The target in data set [2] is T1, Dihydrofolate reductase (Oryctolagus cuniculus) (UniProt C1JLF0).
T1 sequence (whole entry): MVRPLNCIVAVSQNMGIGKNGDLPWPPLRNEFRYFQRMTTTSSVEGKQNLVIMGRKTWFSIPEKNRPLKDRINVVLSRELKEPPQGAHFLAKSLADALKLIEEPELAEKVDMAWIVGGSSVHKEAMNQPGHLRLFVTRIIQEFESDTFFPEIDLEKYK
The experiment in a line: Inhibition of rabbit liver dihydrofolate reductase using [3H]-folic acid after 10 mins by scintillation counting.

Data set [3] has as its system Serum. Kind of data set: Retention time in human serum at 150 mg after 72 hrs by HPLC analysis. In kind it is ADME, cell-free.
Data set [4] relates to Serum. Kind of data set: Drug metabolism in mouse serum assessed as parent compound level at 0.006 g after 2 hrs by TLC analysis. The format is ADME, cell-free.
Data set [5] has as its system Serum. Kind of data set: Drug metabolism in mouse serum assessed as parent compound level at 0.006 g after 6 hrs by TLC analysis. The format is ADME, cell-free.
Data set [6] in a line: Drug metabolism in mouse serum assessed as parent compound level at 0.006 g after 24 hrs by TLC analysis. The format is ADME, cell-free. The settings on record: read-out: Drug metabolism.
A short description of data set [7]: Drug metabolism in mouse serum assessed as parent compound level at 0.006 g after 48 hrs by TLC analysis. In kind it is ADME, cell-free. The settings on record: read-out: Drug metabolism.
The nature of data set [8]: Drug metabolism in monkey serum assessed as parent compound level at 0.006 g after 2 hrs by TLC analysis. The format is ADME, cell-free, Macaca mulatta. The settings on record: rhesus monkey, read-out: Drug metabolism.
Data set [9] can be described thus: Drug metabolism in monkey serum assessed as parent compound level at 0.006 g after 6 hrs by TLC analysis. In kind it is ADME, cell-free, Macaca mulatta. The note with it: rhesus monkey, read-out: Drug metabolism.
Data set [10] can be described thus: Drug metabolism in monkey serum assessed as parent compound level at 0.006 g after 24 hrs by TLC analysis. In kind it is ADME, cell-free, Macaca mulatta. The settings on record: rhesus monkey, read-out: Drug metabolism.
Data set [11] can be described thus: Drug metabolism in monkey serum assessed as parent compound level at 0.006 g after 48 hrs by TLC analysis. The format is ADME, cell-free, Macaca mulatta. The settings on record: rhesus monkey, read-out: Drug metabolism.
A short description of data set [12]: Drug metabolism in human serum assessed as parent compound level at 0.006 g after 2 hrs by TLC analysis. The settings on record: read-out: Drug metabolism. In kind it is ADME, cell-free.
A short description of data set [13]: Drug metabolism in human serum assessed as parent compound level at 0.006 g after 6 hrs by TLC analysis. The format is ADME, cell-free. The note with it: read-out: Drug metabolism.
The nature of data set [14]: Drug metabolism in human serum assessed as parent compound level at 0.006 g after 24 hrs by TLC analysis. In kind it is ADME, cell-free. The note with it: read-out: Drug metabolism.
The nature of data set [15]: Drug metabolism in human serum assessed as parent compound level at 0.006 g after 48 hrs by TLC analysis. In kind it is ADME, cell-free. The note with it: read-out: Drug metabolism.
In data set [16] the test system is Serum. Kind of data set: Drug metabolism in rat serum assessed as DBMTX level at 0.006 g after 2 hrs by TLC analysis. The format is ADME, cell-free.
Data set [17] deals with Serum. The experiment in a line: Drug metabolism in rat serum assessed as DBMTX level at 0.006 g after 6 hrs by TLC analysis. In kind it is ADME, cell-free.
The test system of data set [18] is Serum. Kind of data set: Drug metabolism in rat serum assessed as DBMTX level at 0.006 g after 24 hrs by TLC analysis. In kind it is ADME, cell-free.
For data set [19], the system named is Serum. The experiment in a line: Drug metabolism in rat serum assessed as DBMTX level at 0.006 g after 48 hrs by TLC analysis. The format is ADME, cell-free.
Data set [20] deals with Serum. The experiment in a line: Drug metabolism in rat serum assessed as MBMTX level at 0.006 g after 2 hrs by TLC analysis. The format is ADME, cell-free.
In data set [21] the test system is Serum. The experiment in a line: Drug metabolism in rat serum assessed as MBMTX level at 0.006 g after 6 hrs by TLC analysis. In kind it is ADME, cell-free.
Data set [22] deals with Serum. Kind of data set: Drug metabolism in rat serum assessed as MBMTX level at 0.006 g after 24 hrs by TLC analysis. In kind it is ADME, cell-free.
In data set [23] the test system is Serum. Kind of data set: Drug metabolism in rat serum assessed as MBMTX level at 0.006 g after 48 hrs by TLC analysis. In kind it is ADME, cell-free.
Data set [24] has as its system Serum. The experiment in a line: Drug metabolism in rat serum assessed as parent compound level at 0.006 g after 2 hrs by TLC analysis. The format is ADME, cell-free.
For data set [25], the system named is Serum. The experiment in a line: Drug metabolism in rat serum assessed as parent compound level at 0.006 g after 6 hrs by TLC analysis. In kind it is ADME, cell-free.
For data set [26], the system named is Serum. Kind of data set: Drug metabolism in rat serum assessed as parent compound level at 0.006 g after 24 hrs by TLC analysis. The format is ADME, cell-free.
Data set [27] has as its system Serum. The experiment in a line: Drug metabolism in rat serum assessed as parent compound level at 0.006 g after 48 hrs by TLC analysis. In kind it is ADME, cell-free.
Data set [28] deals with Serum. The experiment in a line: Drug metabolism in human serum assessed as MTX alpha-monobutyl ester level at 150 mg after 72 hrs by HPLC analysis. In kind it is ADME, cell-free.
Data set [29] relates to Serum. The experiment in a line: Drug metabolism in human serum assessed as MTX gamma-monobutyl ester level at 150 mg after 72 hrs by HPLC analysis. The format is ADME, cell-free.

Consider `COC(=O)CC[C@H](NC(=O)c1ccc(N(C)Cc2cnc3nc(N)nc(N)c3n2)cc1)C(=O)O`, for which, in [1], the ID50 is recorded as 0.43 ×10⁻⁶ mol/L.
Turning to `CCOC(=O)[C@H](CCC(=O)O)NC(=O)c1ccc(N(C)Cc2cnc3nc(N)nc(N)c3n2)cc1`, the ID50 in data set [1] is 6.2 ×10⁻⁶ mol/L.
On to `CCCCOC(=O)CC[C@H](NC(=O)c1ccc(N(C)Cc2cnc3nc(N)nc(N)c3n2)cc1)C(=O)O`, for which the ID50 in data set [1] came to 0.76 ×10⁻⁶ mol/L; in [2], 1.7 ×10⁻⁸ mol/L. The same molecule displayed a Retention_time in data set [3] of 3.2 min.
`CCCCOC(=O)CC[C@H](NC(=O)c1ccc(N(C)Cc2cnc3nc(N)nc(N)c3n2)cc1)C(=O)OCCCC`: the ID50 in data set [1] worked out at 0.057 ×10⁻⁶ mol/L; in [2] it was 1.4 ×10⁻⁷ mol/L. Moreover, the Drug metabolism in data set [4] is 43%; in [5], 46%; in data set [16] it was “metabolite_detected”; in [17], “metabolite_detected”; in data set [18] it was “metabolite_detected”; in [19] it was “metabolite_detected”. In addition, the Drug metabolism result in data set [20], in data set [21], in data set [22], in data set [23], in data set [24] and in data set [25] was “metabolite_detected” throughout. Also, the Drug metabolism entry in [26], in data set [27], in data set [28] and in data set [29] was “metabolite_detected” each time. Moreover, the results for the remaining at 24 h in data set [6], in [10] and in data set [14] were 89%, below 1% and 1%, respectively. Also, the figures for the remaining at 48 h in data set [7], in [11] and in data set [15] were 93%, 2% and below 1%, respectively. The remaining at 2 h in [8] and in data set [12] was below 1% throughout. Also, the remaining at 6 h in data set [9] and in data set [13] was below 1% throughout.
Molecule `CCOC(=O)CC[C@H](NC(=O)c1ccc(N(C)Cc2cnc3nc(N)nc(N)c3n2)cc1)C(=O)O` showed an ID50 in [1] of 0.58 ×10⁻⁶ mol/L.
On to `COC(=O)CC[C@H](NC(=O)c1ccc(N(C)Cc2cnc3nc(N)nc(N)c3n2)cc1)C(=O)OC`, for which the ID50 in data set [1] stood at 0.4 ×10⁻⁶ mol/L.
With `CN(Cc1cnc2nc(N)nc(N)c2n1)c1ccc(C(=O)N[C@@H](CCC(=O)O)C(=O)O)cc1` [METHOTREXATE], the ID50 in [1] was determined as 0.006 ×10⁻⁶ mol/L; in data set [2], 9 ×10⁻⁹ mol/L. Also, the Retention_time in data set [3] came to 2 min.
For `CCCCOC(=O)[C@H](CCC(=O)O)NC(=O)c1ccc(N(C)Cc2cnc3nc(N)nc(N)c3n2)cc1` the same measures were 2 ×10⁻⁶ mol/L, 1.7 ×10⁻⁸ mol/L and 5.1 min.
`CCOC(=O)CC[C@H](NC(=O)c1ccc(N(C)Cc2cnc3nc(N)nc(N)c3n2)cc1)C(=O)OCC` yielded an ID50 in [1] of 0.012 ×10⁻⁶ mol/L.
